{
  "source": "patent US8044022B2",
  "about": "“Hyaluronic acid binding peptides enhance host defense against pathogenic bacteria” (priority 2005, dated 2011)",
  "key": {"Acapsular GAS": {"test_system": "Acapsular GAS", "assay": "Fluorometry binding of FITC-conjugated peptide to capsule-deficient GAS", "set-up": "species or system Group A Streptococcus", "protocol": "(§1) Bacterial strains: GAS strain 950771 is a moderately encapsulated M3 clinical isolate from a child with post-varicella necrotizing fasciitis and sepsis, and an isogenic capsule deficient mutant, 188, derived from 950771. GAS were grown in Todd-Hewitt broth (Difco) to mid-exponential phase OD650 of 0.15 at 37° C. for all experiments. Commercially available trypticase-soy agar medium supplemented with 5% vol/vol sheep blood (BAP)(PML Microbiologicals, British Columbia, Canada) were used for all plate cultures. S. equi s(ATCC 53185) and P. multocida (ATCC 11039) were purchased from ATCC and cultured as recommended. Briefly, S. equi was cultured in Todd-Hewitt broth and S. uberis and P. multocida were cultured in Brain heart infusion (Difco) to OD 650 of 0.15 at 37° C. Quantitative cultures were performed in parallel with each experiment to verify the multiplicity of infection (MOI) of the inoculum.\n(§2) Binding of HABP to HA and HA-encapsulated bacteria: To assess whether HABP are able to associate specifically with the GAS capsule, bacteria were cultured to mid-log phase, for maximal HA capsule expression, and incubated with either 10 μg/ml of FITC-conjugated HABP01 or SCRM, with purified HA at 1 mg/ml, as a positive control, or an isogenic mutant strain of GAS deficient in HA capsule, as a negative control. A GAS-specific antibody was used to control for the number of bacteria per well."}, "GAS": {"test_system": "GAS", "assay": "Bacterial translocation through polarized keratinocyte cultures (Transwell)", "type": "cell-based, Group A Streptococcus", "conditions": "two hours after addition of GAS", "protocol": "Cell cultures: For the preparation of in vitro keratinocyte cultures, human primary OKP7 cells were derived from the oropharynx. Keratinocytes were seeded at 5×10^5 cells per well onto polycarbonate Transwell membrane supports (12 well plates, 3.0 μm pore size; Costar) or tissue culture treated plastic ware and cultured for 5-10 days at 37° C. with 5% humidified CO2 in cSFM medium with daily medium changes. Once confluent, the calcium concentration of the cSFM was increased to 1.2 mM and cells were cultured for 2 more days, before the integrity of the monolayer was assessed by measuring permeability to sodium fluorescein, and in some experiments, by measuring transepithelial electrical resistance.\nInfection procedures: Keratinocyte layer cultures in Transwell inserts were inoculated in the upper chamber with GAS, S. equi, S. uberis, and P. multocida at a multiplicity of infection (MOI) of 1 bacterium per keratinocyte in the presence or absence of HABP01 or SCRM. Infected cultures were incubated at 37° C. with 5% CO2 for the desired time. In translocation experiments, Transwell inserts containing the keratinocytes were moved to new wells containing fresh medium every 2 hours to prevent overgrowth of bacteria that had translocated through the keratinocytes layer to the lower chamber. Bacterial translocation was quantified by culturing medium from the lower chamber at 2-hour intervals.\nBacterial translocation studies were performed to assess the impact of HABP01 on bacterial paracellular translocation through polarized keratinocyte cultures.\nIncubation of GAS in the presence of HABP33, HABP35 and HABP42, also delayed GAS translocation. At two hours after the addition of GAS to the keratinocytes, approximately 530 CFU of GAS were detected in the lower level in cultures treated with PBS or SCRM peptide."}, "[1]": {"test_system": "Wild Type GAS (HA encapsulated)", "assay": "Fluorometry binding of FITC-conjugated peptide to encapsulated GAS", "set-up": "species or system Group A Streptococcus", "protocol": "as §1, §2"}, "[2]": {"conditions": "fluorometry, HABP35 also confocal microscopy, data not shown"}},
  "data": [
    {"sequence": "HKSVSRHTSMRHSTM [SCRM, reference compound]", "values": [
      {"measurement": "binding to unencapsulated GAS (in words)", "setting": "Acapsular GAS; [2]", "value": "did not bind"},
      {"measurement": "Relative binding", "setting": "Acapsular GAS; substrate in well: Acapsular GAS, 10 μg/ml FITC-conjugated peptide", "value": "1490 ± 40 relative fluorescent units"},
      {"measurement": "GAS detected in the lower level", "setting": "GAS", "value": "approximately 530 CFU"},
      {"measurement": "binding to encapsulated GAS (in words)", "setting": "[1]; [2]", "value": "did not bind"},
      {"measurement": "Relative binding", "setting": "[1]; substrate in well: Wild Type GAS, 10 μg/ml FITC-conjugated peptide", "value": "1550 ± 30 relative fluorescent units"}
    ]}
  ]
}
